Our source for the IC50 and EC50 values is BindingDB's records for doi:10.1021/jm801420y (St. Jude Children'S Research Hospital, 2009).

A value given as a limit tells only on which side of the number the result lay.

Chain of Sonic hedgehog protein (Mus musculus, UniProt Q62226) (Q62226 25-198 limits assumed): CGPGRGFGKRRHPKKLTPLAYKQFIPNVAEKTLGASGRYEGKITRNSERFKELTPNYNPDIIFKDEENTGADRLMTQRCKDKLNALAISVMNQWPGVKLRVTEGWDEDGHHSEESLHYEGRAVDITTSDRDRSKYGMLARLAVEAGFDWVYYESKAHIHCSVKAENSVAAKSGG
Chain of Zinc finger protein GLI2 (P10070 whole entry): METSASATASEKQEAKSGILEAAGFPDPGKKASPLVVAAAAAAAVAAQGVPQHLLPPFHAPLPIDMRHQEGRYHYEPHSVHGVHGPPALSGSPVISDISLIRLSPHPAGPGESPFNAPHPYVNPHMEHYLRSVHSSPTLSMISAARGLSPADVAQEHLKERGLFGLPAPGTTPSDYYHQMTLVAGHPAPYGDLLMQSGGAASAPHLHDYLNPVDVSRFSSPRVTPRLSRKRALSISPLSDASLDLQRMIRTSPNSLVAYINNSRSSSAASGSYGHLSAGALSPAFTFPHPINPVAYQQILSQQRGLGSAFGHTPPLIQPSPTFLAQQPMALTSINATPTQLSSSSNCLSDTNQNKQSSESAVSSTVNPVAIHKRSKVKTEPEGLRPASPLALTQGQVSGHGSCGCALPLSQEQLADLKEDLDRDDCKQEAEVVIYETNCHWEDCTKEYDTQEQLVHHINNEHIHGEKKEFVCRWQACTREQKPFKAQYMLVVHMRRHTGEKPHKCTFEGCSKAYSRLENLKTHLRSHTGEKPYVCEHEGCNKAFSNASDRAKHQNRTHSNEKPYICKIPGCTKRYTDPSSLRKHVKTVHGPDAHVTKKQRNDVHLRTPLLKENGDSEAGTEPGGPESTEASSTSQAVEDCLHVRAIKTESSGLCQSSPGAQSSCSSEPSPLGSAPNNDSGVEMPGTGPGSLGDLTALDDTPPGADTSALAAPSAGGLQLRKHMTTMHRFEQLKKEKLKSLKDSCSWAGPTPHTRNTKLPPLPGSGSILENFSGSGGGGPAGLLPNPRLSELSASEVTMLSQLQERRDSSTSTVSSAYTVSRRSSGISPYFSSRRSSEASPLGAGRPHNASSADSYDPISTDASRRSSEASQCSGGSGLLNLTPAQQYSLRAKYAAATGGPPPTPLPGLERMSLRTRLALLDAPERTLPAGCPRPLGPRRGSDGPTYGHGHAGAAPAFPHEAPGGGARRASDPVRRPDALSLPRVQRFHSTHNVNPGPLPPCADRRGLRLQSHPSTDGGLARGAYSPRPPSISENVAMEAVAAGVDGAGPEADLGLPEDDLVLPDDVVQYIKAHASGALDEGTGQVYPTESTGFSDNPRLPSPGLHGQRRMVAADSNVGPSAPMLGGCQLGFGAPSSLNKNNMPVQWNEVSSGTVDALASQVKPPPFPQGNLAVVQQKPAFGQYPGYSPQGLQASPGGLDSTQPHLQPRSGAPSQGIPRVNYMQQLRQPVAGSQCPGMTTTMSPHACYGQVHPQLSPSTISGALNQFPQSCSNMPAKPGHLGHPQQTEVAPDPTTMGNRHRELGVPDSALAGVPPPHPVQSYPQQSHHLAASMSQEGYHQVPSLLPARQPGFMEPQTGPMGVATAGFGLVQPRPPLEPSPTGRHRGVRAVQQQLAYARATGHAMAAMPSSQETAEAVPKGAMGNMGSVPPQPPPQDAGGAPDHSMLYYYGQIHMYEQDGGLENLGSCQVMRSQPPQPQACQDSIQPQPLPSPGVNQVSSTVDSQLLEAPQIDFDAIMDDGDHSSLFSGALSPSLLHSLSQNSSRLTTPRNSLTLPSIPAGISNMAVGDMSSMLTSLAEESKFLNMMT

The target in one assay is Sonic hedgehog protein (Homo sapiens, UniProt Q15465). Description: Inhibition of lipid-modified (octylated) form of SHH expressed in mouse s12 cells by luciferase reporter gene assay. For orientation: Reporter assays use an easily measured gene product as a stand-in for the process of interest.
Chain of Sonic hedgehog protein (Homo sapiens, UniProt Q15465) (Q15465 24-197 limits assumed): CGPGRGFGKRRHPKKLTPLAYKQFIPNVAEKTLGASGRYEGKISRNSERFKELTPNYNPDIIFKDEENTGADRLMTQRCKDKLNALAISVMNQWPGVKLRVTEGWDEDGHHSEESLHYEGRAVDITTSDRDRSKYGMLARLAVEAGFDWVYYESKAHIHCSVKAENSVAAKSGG
`CC1=C2C(=O)[C@H]3[C@@H](CC=C4C[C@@H](O)CC[C@@]43C)[C@@H]2CC[C@]12O[C@@H]1C[C@H](C)CN[C@H]1[C@H]2C` [5'-hydroxy-2',3,6,15'-tetramethyl-(1'S,2'R,2'R,3R,3aS,5'S,6S,7aR,10'S,11'S)-spiro[perhydrofuro[3,2-b]pyridine-2,14'-tetracyclo[8.7.0.02,7.011,16]heptadeca-7',15'-diene]-17'-one] gave an IC50 of 500 nM.
On the same count and under the same terms, next, `COc1cccc(CN(C(=O)CC(C)(C)C)[C@H]2C[C@@H](C(=O)N3CCNCC3)N(Cc3ccc4c(c3)OCO4)C2)c1` [N-((3S,5S)-1-(benzo[d][1,3]dioxol-5-ylmethyl)-5-(piperazine-1-carbonyl)pyrrolidin-3-yl)-N-(3-methoxybenzyl)-3,3-dimethylbutanamide]: 100 nM.

A further assay addresses Sonic hedgehog protein (Mus musculus, UniProt Q62226). Briefly: Inhibition of SHH in mouse Shh Light2 cells by GLI-responsive firefly luciferase reporter gene assay.
`CCOc1ccc(Nc2nc(-c3c(C)nc4ccccn34)cs2)cc1` [N-(4-ethoxyphenyl)-4-(2-methylimidazo[1,2-a]pyridin-3-yl)thiazol-2-amine] returned a half-maximal inhibitory concentration (IC50) of 30 nM.
Same read-out and setting: next, `CC(=O)c1cccc(Nc2nc(-c3ccccc3)cs2)c1` [1-(3-(4-phenylthiazol-2-ylamino)phenyl)ethanone]: 100 nM; `Cc1nc2ccccn2c1-c1csc(NC(=O)c2ccc3ccccc3c2)n1` [N-(4-(2-methylimidazo[1,2-a]pyridin-3-yl)thiazol-2-yl)-2-naphthamide]: 100 nM; `CN(C)c1ccccc1CN1CCCN(Cc2ccccc2N(C)C)C1c1ccncc1` [2-((3-(2-(dimethylamino)benzyl)-2-(pyridin-4-yl)-tetrahydropyrimidin-1(2H)-yl)methyl)-N,N-dimethylbenzenamine]: 5000 nM.
Take `c1cc(-c2sc(-c3ccncc3)c(-c3ccncc3)c2-c2ccncc2)ccn1` [4-(3,4,5-tri(pyridin-4-yl)thiophen-2-yl)pyridine]: half-maximal inhibition (IC50) required 5000 nM.
The same measure, in the same setting: the figure for `CS(=O)(=O)c1ccc(C(=O)Nc2ccc(Cl)c(-c3ccccn3)c2)c(Cl)c1` [2-chloro-N-(4-chloro-3-(pyridin-2-yl)phenyl)-4-(methylsulfonyl)benzamide] is 3 nM; for `COc1ccc(Cl)cc1Nc1nc(-c2cccnc2)cs1` [N-(5-chloro-2-methoxyphenyl)-4-(pyridin-3-yl)thiazol-2-amine] it is 100 nM.
Take `CC1=C2C[C@H]3[C@@H](CC=C4C[C@@H](O)CC[C@@]43C)[C@@H]2CC[C@]12O[C@@H]1C[C@H](C)CN[C@H]1[C@H]2C`: a half-maximal response (EC50) required 500 nM.
Still for that read-out and setting: next, `COc1cc(OC)cc(C(=O)Nc2ccc(Cl)c(-c3nc4ccc(N(C)C)cc4[nH]3)c2)c1` [N-(4-chloro-3-(5-(dimethylamino)-1H-benzo[d]imidazol-2-yl)phenyl)-3,5-dimethoxybenzamide]: 40 nM.

For the next assay, the target named is T1, Zinc finger protein GLI1 (Homo sapiens, UniProt P08151).
T1 sequence (P08151 whole entry): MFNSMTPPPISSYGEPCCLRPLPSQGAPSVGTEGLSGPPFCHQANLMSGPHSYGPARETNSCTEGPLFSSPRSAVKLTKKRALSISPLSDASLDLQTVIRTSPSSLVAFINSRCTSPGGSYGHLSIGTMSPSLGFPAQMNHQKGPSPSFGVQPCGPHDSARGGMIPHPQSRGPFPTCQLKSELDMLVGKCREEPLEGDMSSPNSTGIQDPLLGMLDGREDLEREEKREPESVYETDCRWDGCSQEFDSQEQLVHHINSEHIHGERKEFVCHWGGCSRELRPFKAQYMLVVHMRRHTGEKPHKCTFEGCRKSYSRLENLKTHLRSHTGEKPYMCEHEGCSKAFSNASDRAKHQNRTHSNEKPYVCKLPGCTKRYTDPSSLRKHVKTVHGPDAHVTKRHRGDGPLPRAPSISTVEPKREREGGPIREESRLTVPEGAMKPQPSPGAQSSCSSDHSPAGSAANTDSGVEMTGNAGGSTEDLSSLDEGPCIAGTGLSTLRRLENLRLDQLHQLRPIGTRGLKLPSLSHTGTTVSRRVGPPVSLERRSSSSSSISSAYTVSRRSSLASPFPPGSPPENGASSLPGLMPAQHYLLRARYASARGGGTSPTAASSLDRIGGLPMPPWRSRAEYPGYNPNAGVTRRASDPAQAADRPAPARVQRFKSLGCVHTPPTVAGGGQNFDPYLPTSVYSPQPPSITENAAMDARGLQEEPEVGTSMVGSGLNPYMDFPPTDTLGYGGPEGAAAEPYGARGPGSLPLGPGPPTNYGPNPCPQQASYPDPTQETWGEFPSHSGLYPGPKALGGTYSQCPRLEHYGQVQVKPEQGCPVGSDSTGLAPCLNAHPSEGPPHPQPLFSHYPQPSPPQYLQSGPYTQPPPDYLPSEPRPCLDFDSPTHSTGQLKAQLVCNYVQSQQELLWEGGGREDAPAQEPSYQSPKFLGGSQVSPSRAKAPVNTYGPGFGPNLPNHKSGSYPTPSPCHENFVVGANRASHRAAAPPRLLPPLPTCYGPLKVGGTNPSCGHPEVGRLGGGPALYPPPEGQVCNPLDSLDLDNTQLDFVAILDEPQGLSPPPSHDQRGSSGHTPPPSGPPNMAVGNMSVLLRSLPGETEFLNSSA
Description: Inhibition of Gli1-mediated transcription expressed in human PANC1 cells.
`C[C@@]12C[C@H]3OC(=O)[C@@H]1CO[C@]14O[C@]5([C@H]2C1=O)[C@@](O)(CC[C@H]1[C@H]4C[C@H]2O[C@]24CC=CC(=O)[C@]14C)C(=O)O[C@@]35C` [PHYSALIN F] had an IC50 of 660 nM.
On the same count and under the same terms, next, `O=C1NCc2c1c1c3ccccc3[nH]c1c1[nH]c3ccccc3c21`: 1800 nM; `C/C1=C\CC(C)(C)/C=C/C(=O)/C(C)=C/CC1` [Zerumbone]: 7100 nM; `C[C@]12C(=O)C=CCC1=CC[C@@H]1[C@@H]2CC[C@]2(O)C(=O)O[C@@]3(C)[C@H]4C[C@]5(C)[C@@H](CO[C@@]16O[C@@]32[C@H]5C6=O)C(=O)O4` [NSC-287088]: 620 nM.

The next assay has as its target Zinc finger protein GLI2 (Homo sapiens, UniProt P10070). Description: Inhibition of Gli2-mediated transcription expressed in human PANC1 cells.
In the case of `O=C1NCc2c1c1c3ccccc3[nH]c1c1[nH]c3ccccc3c21`, the IC50 came out at 2700 nM.
On the same count and under the same terms, next, `C/C1=C\CC(C)(C)/C=C/C(=O)/C(C)=C/CC1` [Zerumbone]: 910 nM.

Target in the next assay: not listed separately
Briefly: Inhibition of SHH-mediated mouse C3H10T1/2 cells differentiation into osteoblasts by alkaline phosphatase assay.
The molecule `Cc1cccc(C)c1NC(=O)c1ccc(Nc2nc(C3CC3)c3ccccc3n2)cc1` [4-(4-cyclopropylquinazolin-2-ylamino)-N-(2,6-dimethylphenyl)benzamide] registered a half-inhibitory concentration (IC50) of 2.8 nM.
`CCOc1cc(C(=O)Nc2ccc(Cl)c(-c3nc4ccccc4[nH]3)c2)cc(OCC)c1OCC` [N-(3-(1H-Benzo[d]imidazol-2-yl)-4-chlorophenyl)-3,4,5-triethoxybenzamide] returned an IC50 of 30 nM.
On the same count and under the same terms, next, `Cc1cccc(C)c1NC(=O)c1ccc(Nc2nc(-c3ccccc3)c3cccnc3n2)cc1` [N-(2,6-dimethylphenyl)-4-(4-phenylpyrido[2,3-d]pyrimidin-2-ylamino)benzamide]: 3.6 nM.
Same read-out and setting: the figure for `CN1CCCc2ccc(NC(=O)c3ccc(Nc4nc(-c5ccccc5)c5ccccc5n4)cc3)cc21` [N-(1-methyl-1,2,3,4-tetrahydroquinolin-7-yl)-4-(4-phenylquinazolin-2-ylamino)benzamide] is 5.8 nM.
The same measure, in the same setting: the figure for `Cc1nn(-c2ccccc2)c(C)c1C=NN1CCN(Cc2ccccc2)CC1` [4-benzyl-N-((3,5-dimethyl-1-phenyl-1H-pyrazol-4-yl)methylene)piperazin-1-amine] is below 20 nM; for `COc1ccc(-c2cc(C3CC3)nc(SCC(C)=O)c2C#N)cc1` [6-cyclopropyl-4-(4-methoxyphenyl)-2-(2-oxopropylthio)nicotinonitrile] it is below 100 nM.
With `CCCCCc1ccc(-c2ccc(/C=C/C(=O)N3CCCCC3)cc2)nc1` [(E)-3-(4-(5-pentylpyridin-2-yl)phenyl)-1-(piperidin-1-yl)prop-2-en-1-one], the IC50 was found to be 200 nM.

As usually defined, the IC50 is the point on the concentration scale where inhibition reaches its midpoint. The EC50 is the concentration that produces a half-maximal response. High values mean weaker potency, low ones greater potency.
